Measurements: patent EP0541497A1, “Prolineamide derivatives as enhancers of learning processes and memory and pharmaceutical compositions containing same” (Sigma-Tau Industrie Farmaceutiche Riunite S.p.A., priority 1991, dated 1993)

Legend:
[1] = relative to oxiracetan; cited from earlier work
ECS-induced amnesia = assay: Passive avoidance test, amnesia induced by electroconvulsive shock (ECS); assay type: in vivo, Male CDI mice; conditions: percentage of amnesia reversal, given 30 minutes before training, retention 24 hours later
Description: In order to assess the antiamnesic activity the passive avoidance test in mince was used.
Male CDI mice weighing 25-26 g (charles River, Germany) fed on a normal diet, were used.
The compounds were administered i.p.; doses equimolar to 9.0 and 0.9 mg piracetam kg ⁻¹ were used.
The water-soluble compounds were dissolved in saline; the insoluble ones were dissolved in dimethylsulfoxide and then diluted in 2% Tween 80, ratio 1:4.
The apparatus for passive avoidance conditioning was a black plastic chamber (42 x 42 cm, height 40 cm), provided with a floor constructed of metal that could be electrified. From the front wall extended a white runway, 30 cm long and 10 cm wide provided with side walls 12 cm high, which led into the box through a guillotine door.
The animals, 30 minutes following treatment, were placed on the runways. After one minute of adaptation, the door was raised and the time employed by the animal to enter the darkened with all four feet, was recorded.
Upon entry, the guillotine door was lowered and 3 seconds thereafter the rods were electrified, 0.24 mA for 2 seconds. The mouse was then removed from the chamber and immediately administered and electroshock delivered through spring clips attached to the ears (square wave, intensity 20 mA, amplitude 0.6 msec, duration 0.5 s, frequency 50 Hz). Immediately thereafter the animal was placed in the housing cage. Retention was assessed 24 hours later by placing the animal on the runways and again evaluating the latency in entering the chamber, using an end-point of 300 s (crf. Brammer, loc. cit.).
In each experiment, two groups of animals in addition to the treated ones were used, that were defined as follows: • (1) ceiling control animals (treated with placebo and not subjected to ECS amnesia treatment) to ensure that these animals not treated with the amnesia agent remembered the task; • (2) base-line control animals (treated with placebo and subjected to ECS amnesia treatment) to ensure that ECS produced amnesia in the animals not treated with the compounds of the present invention.
The sum ΣAij encompasses all the possible pairs obtained by combining each term Xi with each term Xj.

[2] = Behavioural profile (Irwin test); assay type: in vivo, male CDI Mice; conditions: mouse, in vivo; oral, 90 mg/kg (equimolar to piracetam), monitored for 6 hours; read-out: death rate
Description: (§1) The behavioural profile was assessed in male CDI Mice (Charles River, Italy) weighing 22-24 g, using the Irwin test (IRWIN S., Drug screening and evaluation procedures; 136, 123-128, 1962). The animals had been caged under normal conditions and kept fasting for the last 18 hours.
(§2) Following administration of the compounds, the behaviour of the animals was monitored for 6 hours. The compounds were suspended in 10% arabic gum and orally administered at doses equimolar to 90, 23, 5.4 and 1.4 mg piracetam/10mL/kg of body weight.
(§3) The animals of the control groups were administered 10% arabic gum (10mL/kg, orally).

male CDI Mice = assay: Behavioural profile (Irwin test); assay type: in vivo; conditions: oral, the other doses (equimolar to 23, 5.4 and 1.4 mg piracetam/10mL/kg), monitored for 6 hours
Description: as §1, §2, §3

[3] = 0.9 mg/kg (i.p., dose equimolar to 0.9 mg piracetam kg-1)
[4] = 9mg/kg (i.p., dose equimolar to 9.0 mg piracetam kg-1)

SMILES	doses for nootropic activity, times as high as those of oxiracetan [1]	%AR (ECS-induced amnesia; [3])	%AR (ECS-induced amnesia; [4])	mortality at 6 h [2]	toxicity (male CDI Mice)
O=C1CC[C@@H](C(=O)O)N1 [L-pyroglutamic acid]	5-10 times				
NC(=O)CN1CCCC1=O [Piracetam, reference compound]		0%	0%		
CC(C)N(CCNC(=O)[C@@H]1CCCN1C(=O)OCc1ccccc1)C(C)C [ST 691, (S)-1-[N-(BENZYLOXYCARBONYL)-PROLYL]-2,2(DIISOPROPYL)-ETHYLENDIAMINE]		52%	0%	100%	non toxic
O=C(NCCO)[C@@H]1CCCN1C(=O)OCc1ccccc1 [ST 704, (S)-N-[N-(BENZYLOXYCARBONYL)-PROLYL]-ETHANOLAMINE]		0%	46%		
O=C([C@@H]1CCCN1C(=O)OCc1ccccc1)N1CCN(c2cccc(Cl)c2)CC1 [ST 792, (S)-1-[N-(BENZYLOXYCARBONYL)-PROLYL]-4-(3-CHLOROPHENYL)-PIPERAZINE]		26%	0%		
CC(C)N(CCNC(=O)[C@@H]1CCCN1C=O)C(C)C [ST 849, (S)-1-[N-(FORMYL)-PROLYL]-2.2(DIISOPROPYL)-ETHYLENDIAMINE]		3%	59%		
